≈ marks a conversion by molar mass, not a printed value. Where two headings read alike, the source gives them in different places.
How the values were obtained:
physchem = settings: 20 °C
[1] = rabbit, in vivo
cyanide toxicity [2] = settings: mouse, in vivo; cited from earlier work
cyanide toxicity [3] = settings: in vivo; cited from earlier work

Compound: O=C([O-])C1(O)CSC(O)(C(=O)[O-])CS1.[Li+].[Li+] (stereo not shown) [Compound 3b, Dilithium 2,5-Dihydroxy-1,4-dithiane-2,5-dicarboxylate]
- solubility (physchem): 1050 mM

Compound: O=C(O)C1(O)CSC(O)(C(=O)O)CS1 (stereo not shown) [Compound 2, 2,5-dihydroxy-1,4-dithiane-2,5-dicarboxylic acid]
- solubility (physchem): 200 mM (≈ 48.1 mg/mL)

Compound: NCCCC[C@H](N)C(=O)O.NCCCC[C@H](N)C(=O)O.O=C(O)C1(O)CSC(O)(C(=O)O)CS1 (stereo not shown) [lysine salt]
- absorption of the antidote [1]: poor absorption
- tolerability of injection [1]: poorly tolerated

Compound: O=C([O-])C1(O)CSC(O)(C(=O)[O-])CS1.[K+].[K+] (stereo not shown) [Compound 3c, Dipotassium 2,5-Dihydroxy-1,4-dithiane-2,5-dicarboxylate]
- solubility (physchem): 570 mM

Compound: O.O.O.O.O=C(O)C1(O)CSC(O)(C(=O)O)CS1.[Na].[Na] (stereo not shown) [Compound 3a, disodium 2,5-dihydroxy-1,4-dithiane-2,5-dicarboxylic acid tetrahydrate]
- rescue (cyanide toxicity [2]): highly effective
- rescue (cyanide toxicity [3]): highly effective

Source: US9757354B2 (priority 2015, dated 2017)
